In US6894068B2, “Substituted benzimidazoles as non-nucleoside inhibitors of reverse transcriptase” (The United States of America as represented by the …, priority 1997, dated 2005):
Where two headings read alike, the source gives them in different places.

Legend:
HIV-1 WT virus (NL4-3) = experiment: microbe, parasite or virus in culture; format: cell-based; details: for EC50: Human immunodeficiency virus 1, NL43, CEM-SS, read-out: EC50
Method: Evaluation of these compounds for the inhibition of HIV-1 was determined as the fifty percent cell culture inhibitory concentration (CIC50) in CEMSS cell culture with WT virus (NL4-3).
(§1) In this Example, the antiviral and cellular toxicity of NNRTIs was investigated, using the cytopathic cell killing assay described by Yang (Yang et al., “Characteristics of a Group of Non-nucleoside Reverse Transcriptase Inhibitors with Structural Diversity and Potent Anti-Human Immunodeficiency Virus Activity,” Leukemia 9:S75-S85 [1995]). Briefly, in this method cells (e.g., the CEM-SS cell line, available from the NIAID AIDS Research and Reference Program [ARRRP]) were seeded at a density of 5×10^3 cells/well, into the wells of a 96-well microtiter plate. The cells were then infected with HIV virus (either mutant or WT), at a multiplicity of infection (MOI) previously determined to provide complete cell killing by 6 days of culture post-infection (e.g., MOI of 0.01-0.05). Each of the HIV isolates was pre-titered to induce equivalent levels of infection based on cell killing or virus production, prior to their use in these assays. A range of test compound concentrations was added to the wells in triplicate (e.g., serial half-log dilutions) to evaluate inhibition of HIV infection. Controls for each assay included drug controls (drug colorimetric control wells), drug cytotoxicity control wells (cells with drug), virus control wells (cells with virus), and cell viability controls (cells only). Positive control drugs (e.g. AZT and ddC) were also run in parallel.
(§2) After six days of incubation at 37° C., cell viability was determined spectrophotometrically at 450 nm for each well, using the metabolic reduction of XTT to a soluble colored formazan. (See, Gartner and Popovic, “Virus Isolation and Production, in Aldovini and Walker (eds.), Techniques in HIV Research, Stockton Press, NY, pp. […] [1991]; and Nara and Fischinger, “Quantitative Infectivity Assay for HIV-1 and HIV-2, ” Nature 332:469-470 [1988]).
(§3) The in vitro therapeutic index (TI50) was defined as the fold-difference between the EC50 and IC50. The results for the various compounds are included in FIGS. 8 and 19.

[1] = tested on: HIV-1 isolate 4xAZT/Y181C; experiment: Cytopathic cell killing assay, MT-4 cells, isolate 4xAZT/Y181C; format: cell-based
Text: (§4) The various HIV isolates tested in the Figures are those corresponding to wild-type virus (NL4-3) and the other strains listed by their RT mutations. The three 4×AZT isolates included in the Figures represent AZT drug-resistant variants. For example, the 4×AZT/L100I isolate has five mutations: four mutations confer increased resistance to AZT, and the other mutation is located within the NNRTI binding pocket. TZB and nevir. (nevirapine) are two well-known NNRTIs, included in this experiment for comparison purposes.
as §1, §2, §3

HIV-1 WT RT = HIV-1 WT RT (Human immunodeficiency virus type 1 group M subtype B, UniProt P03366); experiment: biochemical; format: biochemical
[2] = tested on: WT and HIV-1 variants containing amino acid substitutions in RT; format: cell-based; details: Table 4 isolates
Text: In these Tables, antiviral data are reported as the quantity of drug in μM required to reduce cell killing or virus production by 50% (EC50). The various HIV isolates tested in the Figures are those corresponding to wild-type virus (NL4-3) and the other strains listed by their RT mutations. The three 4×AZT isolates included in the Figures represent AZT drug-resistant variants.
Briefly, in this method cells (e.g., the CEM-SS cell line, available from the NIAID AIDS Research and Reference Program [ARRRP]) were seeded at a density of 5×10^3 cells/well, into the wells of a 96-well microtiter plate. The cells were then infected with HIV virus (either mutant or WT), at a multiplicity of infection (MOI) previously determined to provide complete cell killing by 6 days of culture post-infection (e.g., MOI of 0.01-0.05). Each of the HIV isolates was pre-titered to induce equivalent levels of infection based on cell killing or virus production, prior to their use in these assays. A range of test compound concentrations was added to the wells in triplicate (e.g., serial half-log dilutions) to evaluate inhibition of HIV infection. Controls for each assay included drug controls (drug colorimetric control wells), drug cytotoxicity control wells (cells with drug), virus control wells (cells with virus), and cell viability controls (cells only). Positive control drugs (e.g. AZT and ddC) were also run in parallel.
as §2
Antiviral and toxicity data were reported as the quantity of drug required to inhibit 50% of virus-induced cell killing or virus production (EC50), and the quantity of drug required to […] (IC50). The in vitro therapeutic index (TI50) was defined as the fold-difference between the EC50 and IC50.

HIV-1 isolate K103N = experiment: Cytopathic cell killing assay, MT-4 cells, isolate K103N; format: cell-based; details: Human immunodeficiency virus 1, MT4, read-out: EC50, isolate K103N, Table 4; MT-4 cells
Text: as §4, §1, §2, §3

HIV-1 isolate V108I = experiment: Cytopathic cell killing assay, MT-4 cells, isolate V108I; format: cell-based; details: Human immunodeficiency virus 1, MT4, read-out: EC50, isolate V108I, Table 4; MT-4 cells
Text: as §4, §1, §2, §3

HIV-1 isolate Y188C = experiment: Cytopathic cell killing assay, MT-4 cells, isolate Y188C; format: cell-based
Text: as §4, §1, §2, §3

HIV-1 isolate K101E = experiment: Cytopathic cell killing assay, MT-4 cells, isolate K101E; format: cell-based; details: Human immunodeficiency virus 1, MT4, read-out: EC50, isolate K101E, Table 4; MT-4 cells
Text: as §4, §1, §2, §3

HIV-1 isolate Y181C = experiment: Cytopathic cell killing assay, MT-4 cells, isolate Y181C; format: cell-based; details: Human immunodeficiency virus 1, MT4, read-out: EC50, isolate Y181C, Table 9; MT-4 cells
Text: as §4, §1, §2, §3

HIV-1 isolate Y188H = experiment: Cytopathic cell killing assay, isolate Y188H; format: cell-based; details: Human immunodeficiency virus 1, read-out: EC50, isolate Y188H
Text: as §4, §1, §2, §3

[3] = Table 11, CEMSS/NL4-3, NRVC = no reduction in viral CPE
[4] = Table 7, drug concentration required to reduce cell killing or virus production by 50%, WT

Structure (SMILES)	EC50 (HIV-1 WT virus (NL4-3); [3])	EC50 ([1]; Human immunodeficiency virus 1, MT4, read-out: EC50, isolate 4XAZT/Y181C)	inhibition at 1 µM (HIV-1 WT RT; Table 5, 1 μM drug, WT HIV-1 RT, average of two experiments done in triplicates, read-out: % inhibn (1 μM))	RT inhibition, result in words (HIV-1 WT RT; WT RT)	cytotoxicity and anti-viral effect, summary graph, result in words (HIV-1 WT virus (NL4-3); FIGS. 10-12)	EC50 (HIV-1 WT virus (NL4-3); [4])	therapeutic index at 50% (TC50) (HIV-1 WT virus (NL4-3); difference between efficacy of the drug and cellular toxicity, FIG. 10)	fold better in the inhibition of the various viral isolates than des-methyl analog 26 [2]	melting point	EC50 ([1]; read-out: EC50, isolate 4XAZT/Y181C, Table 9, MT-4 cells)	EC50 (HIV-1 isolate K103N)	EC50 (HIV-1 isolate V108I)	EC50 (HIV-1 isolate Y188C; Human immunodeficiency virus 1, MT4, read-out: EC50, isolate Y188C, Table 4, MT-4 cells)	EC50 (HIV-1 isolate Y188C; Human immunodeficiency virus 1, MT4, read-out: EC50, isolate Y188C, Table 10, values in μM)	EC50 (HIV-1 isolate K101E)	EC50 (HIV-1 isolate Y181C)	EC50 (HIV-1 isolate Y188H)
Fc1cccc(F)c1Cn1c(-c2c(F)cccc2F)nc2ccccc21 [Compound 26, 1-(2,6-difluorobenzyl)-2-(2,6-difluorophenyl)benzimidazole]	1700 nM	> 20000 nM	50%	four-fold increase in inhibitory activity	–	–	–	–	–	–	–	–	–	–	–	–	–
Cc1cccc2c1nc(-c1c(F)cccc1F)n2Cc1c(F)cccc1F [Compound 33, 1-(2,6-difluorobenzyl)-2-(2,6-difluorophenyl)-4-methylbenzimidazole]	440 nM	–	–	–	very effective therapeutic dose	440 nM	greater than one log in concentration	3- to 4 fold	182 to 186 °C	3500 nM	8100 nM	2800 nM	2.3 µM	2.3 µM	16700 nM	4300 nM	–
O=[N+]([O-])c1cccc2c1nc(-c1c(F)cccc1F)n2Cc1c(F)cccc1F [Compound 3100, 1-(2,6-difluorobenzyl)-2-(2,6-difluorophenyl)-4-nitrobenzimidazole]	–	–	–	–	–	2400 nM	–	–	169 °C	–	–	–	–	–	–	–	> 50000 nM
